Legend:
Assay in all cases: post-emergence herbicidal activity, greenhouse
Format in all cases: in vivo
Conditions in all cases: Table I
Lambsquarters = tested on: Lambsquarters
Excerpt: (§1) A good grade of top soil is placed in aluminum pans having holes in the bottom and compacted to a depth of 0.95 to 1.27 cm. from the top of the pan. A predetermined number of seeds of each of several dicotyledonous and monocotyledonous annual plant species and/or vegetative propagules for the perennial plant species are placed on the soil and pressed into the soil surface. The seeds and/or vegetative propagules are covered with soil and leveled. The pans are then placed on a sand bench in the greenhouse and watered from below as needed. After the plants reach the desired age (two to three weeks), each pan except for the control pans is removed individually to a spraying chamber and sprayed by means of an atomizer operating at a positive air pressure of approximately 1.46 kg/cm^2 absolute. The atomizer contains 6 ml. of a solution or suspension of the chemical. In that 6 ml., is an amount of a cyclohexanone emulsifying agent mixture to give a spray solution or suspension which contains about 0.4% by weight of the emulsifier. The spray solution or suspension contains a sufficient amount of the candidate chemical in order to give application rates corresponding to those set forth in the tables. The spray solution is prepared by taking an aliquot of a 1.0% by weight stock solution or suspension of the candidate chemical in an organic solvent such as acetone or tetrahydrofuran or in water. The emulsifying agent employed is a mixture comprising 35 weight percent butylamine dodecylbenzene sulfonate and 65 weight percent of a tall oil ethylene oxide condensate having about 11 moles of ethylene oxide per mole of tall oil. The pans are returned to the greenhouse and watered as before and the injury to the plants as compared to the control is observed at approximately two and four weeks as indicated in the tables under WAT and the results recorded. In some instances, the two-week observations are omitted.
(§2) The post-emergence herbicidal activity index used in Table I is as follows: […]

Morningglory = tested on: Morningglory
Excerpt: as §1, §2

Downy Brome = tested on: Downy Brome
Excerpt: as §1, §2

Johnsongrass = tested on: Johnsongrass
Excerpt: as §1, §2

Cocklebur = tested on: Cocklebur
Excerpt: as §1, §2

Velvetleaf = tested on: Velvetleaf
Excerpt: as §1, §2

Smartweed = tested on: Smartweed
Excerpt: as §1, §2

Quackgrass = tested on: Quackgrass
Excerpt: as §1, §2

Yellow Nutsedge = tested on: Yellow Nutsedge
Excerpt: as §1, §2

Barnyardgrass = tested on: Barnyardgrass
Excerpt: as §1, §2

Compound	post-emergence herbicidal activity index (Lambsquarters; 4 WAT, 11.2 kg/h)	post-emergence herbicidal activity index (Morningglory; 4 WAT, 11.2 kg/h)	post-emergence herbicidal activity index (Downy Brome; 4 WAT, 11.2 kg/h)	post-emergence herbicidal activity index (Johnsongrass; 4 WAT, 11.2 kg/h)	post-emergence herbicidal activity index (Cocklebur; 4 WAT, 11.2 kg/h)	post-emergence herbicidal activity index (Velvetleaf; 4 WAT, 11.2 kg/h)	post-emergence herbicidal activity index (Smartweed; 4 WAT, 11.2 kg/h)	post-emergence herbicidal activity index (Quackgrass; 4 WAT, 11.2 kg/h)	post-emergence herbicidal activity index (Yellow Nutsedge; 4 WAT, 11.2 kg/h)	post-emergence herbicidal activity index (Barnyardgrass; 4 WAT, 11.2 kg/h)	further results
N#CCN(CP(=O)(Oc1ccccc1)Oc1ccccc1)SSC1CCCCC1 [X, Phosphonic acid, [[(cyanomethyl)(cyclohexyldithio)amino]methyl]-, diphenyl ester]	3 (75-99% control)	1 (25-49% control)	1 (25-49% control)	1 (25-49% control)	2 (50-74% control)	1 (25-49% control)	0 (0-24% control)	0 (0-24% control)	0 (0-24% control)	1 (25-49% control)	post-emergence herbicidal activity index (Lambsquarters; 2 WAT, 5.6 kg/h): 3 (75-99% control); post-emergence herbicidal activity index (Morningglory; 2 WAT, 5.6 kg/h): 0 (0-24% control); post-emergence herbicidal activity index (Downy Brome; 2 WAT, 5.6 kg/h): 0 (0-24% control); post-emergence herbicidal activity index (Johnsongrass; 2 WAT, 5.6 kg/h): 0 (0-24% control); post-emergence herbicidal activity index (Cocklebur; 2 WAT, 5.6 kg/h): 0 (0-24% control); post-emergence herbicidal activity index (Velvetleaf; 2 WAT, 5.6 kg/h): 1 (25-49% control); post-emergence herbicidal activity index (Smartweed; 2 WAT, 5.6 kg/h): 0 (0-24% control); post-emergence herbicidal activity index (Quackgrass; 2 WAT, 5.6 kg/h): 0 (0-24% control); post-emergence herbicidal activity index (Yellow Nutsedge; 2 WAT, 5.6 kg/h): 0 (0-24% control); post-emergence herbicidal activity index (Barnyardgrass; 2 WAT, 5.6 kg/h): 0 (0-24% control)
N#CCN(CP(=O)(Oc1ccccc1)Oc1ccccc1)SSCc1cccc(C(F)(F)F)c1 [VIII, Phosphonic acid, [[(cyanomethyl)[[[3-(trifluoromethyl)phenyl]methyl]dithio]amino]methyl]-, diphenyl ester]	4 (100% control)	1 (25-49% control)	2 (50-74% control)	3 (75-99% control)	2 (50-74% control)	1 (25-49% control)	0 (0-24% control)	0 (0-24% control)	2 (50-74% control)	2 (50-74% control)	post-emergence herbicidal activity index (Lambsquarters; 4 WAT, 5.6 kg/h): 4 (100% control); post-emergence herbicidal activity index (Morningglory; 4 WAT, 5.6 kg/h): 1 (25-49% control); post-emergence herbicidal activity index (Downy Brome; 4 WAT, 5.6 kg/h): 1 (25-49% control); post-emergence herbicidal activity index (Johnsongrass; 4 WAT, 5.6 kg/h): 3 (75-99% control); post-emergence herbicidal activity index (Cocklebur; 4 WAT, 5.6 kg/h): 1 (25-49% control); post-emergence herbicidal activity index (Velvetleaf; 4 WAT, 5.6 kg/h): 1 (25-49% control); post-emergence herbicidal activity index (Smartweed; 4 WAT, 5.6 kg/h): 0 (0-24% control); post-emergence herbicidal activity index (Yellow Nutsedge; 4 WAT, 5.6 kg/h): 2 (50-74% control); post-emergence herbicidal activity index (Barnyardgrass; 4 WAT, 5.6 kg/h): 2 (50-74% control)

Reference: patent US4508663A, “Process for preparing thiosulfenamide derivatives of N-phosphonomethylglycinonitriles” (Monsanto Company, priority 1983, dated 1985)
